Results: US6872517B2, “Early diagnosis of cancerous and precancerous conditions by leakage of signature peptides and carbohydrates into the bloodstream” (Lankenau Institute for Medical Research, priority 2000, dated 2005)

Experiments:
[1] = tested on: DMH-treated colon; experiment: Barrier function of DMH-treated colon (Rt, 14C-D-mannitol flux, aberrant crypts); format: in vivo, rat
Excerpt: In addition, however, weekly changes in barrier function of DMH-treated colon were examined, with an emphasis on assessing that function by means of electrophysiology (Rt) and transepithelial flux of ^14C-D-mannitol.

[2] = tested on: LLC-PK1; details: cited from earlier work
[3] = tested on: renal epithelial cell line; details: cited from earlier work
[4] = tested on: occludin; details: cited from earlier work
[5] = tested on: rat colon epithelium; experiment: Increased luminal EGF in rat colon; format: in vivo
Excerpt: The biological significance here is that luminal fluids of many epithelial tissues contain very high levels of certain growth factors (Barnard et al., 1995; Jorgenson et al., 1990; Nexo et al., 1992; Mroczkowski and Reich, 1993), whereas the receptors for these growth factors are normally found on the abluminal cell surface. (Bishop and Wen, 1994; Muto et al., 1991; Thompson, 1988; Scheving et al., 1989). […] (Mullin, 1997). […] This is a direct consequence of the carcinogen's effect on colonic crypt epithelial TJs as described below.

[6] = as weeks of DMH exposure progressed

Question: For `CNNC` [DMH, dimethylhydrazine], which “transepithelial electrical resistance (Rt)” value [1, 6] is on record?
Answer: irregular but significant decline

Question: And the “transepithelial flux of 14C-D-mannitol” value [1, 6]?
Answer: rise

Question: And the “number of aberrant colon crypts” value ([1]; with increasing weeks of DMH exposure)?
Answer: increased in number

Question: With `CCCCCCCCCCCCCC(=O)O[C@@H]1[C@@H](C)[C@@]2(O)[C@@H](C=C(CO)C[C@]3(O)C(=O)C(C)=C[C@@H]23)[C@@H]2C(C)(C)[C@]12OC(C)=O` [TPA] as the molecule, how does the “transepithelial electrical resistance (Rt)” value ([2]; LLC-PK1 cell line) read?
Answer: rapid, dose dependent decrease

Question: What about the “penetration of tight junctions by ruthenium red” value ([2]; TPA-treated cell sheets, not control cultures) of the same molecule?
Answer: able to penetrate

Question: And the “size of molecules the TJs became leaky to” value ([2]; TPA-treated cell sheets)?
Answer: ≤ 2 million

Question: And the “crossing of paracellular markers D-mannitol (mw 182) and polyethylene glycol (mw 4000)” value ([2]; TPA-treated epithelial cell sheet vs control cell sheet)?
Answer: much more rapidly

Question: And the “morphology after chronic exposure” value ([2]; chronic exposure, 4 days or greater)?
Answer: polyp-like, multilayered foci

Question: And the “transepithelial leakiness to salts” value [3]?
Answer: capable of causing transepithelial leakiness to salts

Question: And the ZO-1 expression ([4]; immunofluorescence)?
Answer: down regulated

Question: And the localization of occludin ([4]; immunofluorescence)?
Answer: very little change

Question: What about the “threonine phosphorylation state of occludin” value ([4]; in association with increased TJ permeability) of the same molecule?
Answer: decrease

Question: Which “carcinomas in carcinogen-treated rat colon” value ([5]; colon treated with dimethylhydrazine, luminal EGF increased) does the source give for “EGF: Epidermal Growth Factor, a growth factor (NSDSECPLSHDGYCLHDGVCMYIEALDKYACNCVVGYIGERCQYRDLKWWELR; Epidermal growth factor; UniProt P01133 971-1023, looked up)” here?
Answer: greater number and size of carcinomas

Question: What about the “effect on normal rat colon epithelium” value ([5]; increased EGF concentration in colonic lumen) of the same molecule?
Answer: does not produce any observed effect
